Measured values as given in PubChem BioAssay (NCI).
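Growth conditions: 96-well plates. Treatment: test compound, 48 hours, 5 concentrations. Analysis: linear interpolation between bracketing concentrations; unreached endpoints set to highest concentration. GI50 is the concentration that inhibits growth by half. The concentration for full growth arrest is given as TGI.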

Columns and labels:
Assay in all cases: inhibition of tumour cell growth, NCI panel, 48 h
CAKI-1 renal = tested on: CAKI-1 renal
LOX IMVI melanoma = tested on: LOX IMVI melanoma
NCI-H23 lung = tested on: NCI-H23 lung
NCI-H522 lung = tested on: NCI-H522 lung
NCI/ADR-RES ovarian = tested on: NCI/ADR-RES ovarian
RPMI-8226 leukemia = tested on: RPMI-8226 leukemia
OVCAR-5 ovarian = tested on: OVCAR-5 ovarian
SN12C renal = tested on: SN12C renal
SNB-75 CNS = tested on: SNB-75 CNS
MCF7 breast = tested on: MCF7 breast

Row | SMILES | TGI (CAKI-1 renal) | TGI (LOX IMVI melanoma) | TGI (NCI-H23 lung) | TGI (NCI-H522 lung) | GI50 (NCI/ADR-RES ovarian) | TGI (RPMI-8226 leukemia) | TGI (OVCAR-5 ovarian) | TGI (SN12C renal) | TGI (SNB-75 CNS) | GI50 (CAKI-1 renal) | GI50 (LOX IMVI melanoma) | GI50 (MCF7 breast) | TGI (MCF7 breast) | GI50 (RPMI-8226 leukemia) | GI50 (SNB-75 CNS) | GI50 (NCI-H23 lung) | GI50 (NCI-H522 lung) | TGI (NCI/ADR-RES ovarian) | GI50 (OVCAR-5 ovarian) | GI50 (SN12C renal)
1 | CC(C)SC1SCC2C(=O)N(C)C3(CC3C)C(=O)OCC(NC(=O)c3nc4ccccc4cc3O)C(=O)NC(C)C(=O)N(C)C1C(=O)N(C)C1(CC1C)C(=O)OCC(NC(=O)c1nc3ccccc3cc1O)C(=O)NC(C)C(=O)N2C (stereo not drawn) | 0.00028 µM | < 0.0001 µM | < 0.0001 µM | < 0.0001 µM | 0.0334 µM | < 0.0001 µM | – | – | – | – | – | – | – | – | – | – | – | – | – | –
2 | NC(=O)c1csc(C2O[C@@H](COP(=O)(O)OP(=O)(O)OC[C@H]3OC(n4cnc5c(N)ncnc54)[C@H](O)[C@@H]3O)[C@H](O)[C@@H]2O)n1 (stereo partly drawn) | > 100 µM | > 100 µM | > 100 µM | > 100 µM | – | > 100 µM | > 100 µM | > 100 µM | > 100 µM | – | – | – | – | – | – | – | – | – | – | –
3 | N#Cc1c2ccccc2c2nnc3cc(C(F)(F)F)ccc3n12 | > 100 µM | 62.9 µM | – | – | – | > 100 µM | – | – | > 100 µM | 38.6 µM | 21.7 µM | 10.7 µM | 80.9 µM | 55.1 µM | > 100 µM | – | – | – | – | –
4 | Cc1ccc(C2=[N+]([O-])c3ccccc3C2=O)cc1 | > 100 µM | 31.2 µM | > 31.6 µM | 32.4 µM | – | > 72 µM | > 89.9 µM | 37.8 µM | > 100 µM | – | – | – | – | – | – | – | – | – | – | –
5 | COc1ccc(-n2c(-c3ccc(NC(=O)CCCl)cc3)nnc2-c2cc(OC)c(OC)c(OC)c2)cc1 | – | > 14.3 µM | > 14.3 µM | > 14.3 µM | 4.55 µM | 8.49 µM | > 14.3 µM | > 14.3 µM | > 14.3 µM | – | 4.28 µM | 3.15 µM | > 14.3 µM | 2.85 µM | 3.46 µM | 3.66 µM | 4.14 µM | > 14.3 µM | 6.85 µM | 7.33 µM
6 | CC1=C2C(=CC(C)(CO)C2O)C(=O)C(C)(O)C12CC2 (stereo not drawn) | 0.0183 µM | 0.00992 µM | 0.00996 µM | 0.00421 µM | – | – | 0.0258 µM | 0.118 µM | 0.0165 µM | – | – | – | – | – | 0.00576 µM | – | 0.00088 µM | – | – | –
7 | COC(=O)/C=C1\SC(=Nc2ccc(C(F)(F)F)cc2)N(CCc2c[nH]c3ccccc23)C1=O | – | 2.81 µM | 3.64 µM | 3.91 µM | 1.89 µM | 4.3 µM | 3.38 µM | 3.45 µM | 2.48 µM | – | 1.49 µM | 1.16 µM | 4.53 µM | 1.13 µM | 1.21 µM | 1.76 µM | 1.71 µM | 4.31 µM | 1.79 µM | 1.69 µM
8 | C=C(CN1CCc2ccccc2C1)c1ccc(/C=C/C(=O)Nc2ccccc2N)cc1 | 94.5 µM | 16.5 µM | > 100 µM | 14.7 µM | 4.27 µM | 13.4 µM | > 100 µM | 31 µM | – | 2.21 µM | 3.09 µM | 2.37 µM | > 100 µM | 2.92 µM | – | 9.55 µM | 0.783 µM | > 100 µM | 12.8 µM | 4.49 µM
9 | COC1CCC2C(=O)CCCC2O1 (stereo not drawn) | > 100 µM | – | > 100 µM | > 100 µM | – | > 100 µM | > 100 µM | > 100 µM | > 100 µM | – | – | – | – | – | – | – | – | – | – | –
10 | Cc1cc(N(CCC#N)CCC#N)ccc1N=Nc1ccccc1[N+](=O)[O-] | > 100 µM | > 100 µM | > 100 µM | > 100 µM | – | – | > 100 µM | > 100 µM | > 100 µM | – | – | – | – | – | – | – | – | – | – | –
11 | CCOC(=O)c1[nH]c2cccc3c2c1CC(Br)C3=O (stereo not drawn) | 23.6 µM | 31.8 µM | 35.9 µM | – | – | 26.7 µM | 34.5 µM | 30.9 µM | – | – | – | – | 84.3 µM | – | – | – | – | 30.3 µM | – | –
12 | COC(=O)C(=O)C(C(=O)C(=O)Nc1ccc([N+](=O)[O-])cc1[N+](=O)[O-])c1nc2ccc([N+](=O)[O-])cc2[nH]c1=O (stereo not drawn) | > 100 µM | > 100 µM | > 100 µM | > 100 µM | – | > 100 µM | > 100 µM | > 100 µM | 84.9 µM | – | – | – | – | – | – | – | – | – | – | –
13 | C[C@@H](Oc1cc(-c2cnn(C3CCNCC3)c2)cnc1N)c1c(Cl)ccc(F)c1Cl | > 10 µM | 2.64 µM | > 10 µM | 3.2 µM | 7.38 µM | 8.64 µM | > 10 µM | > 10 µM | – | 3.39 µM | 1.17 µM | 0.457 µM | 2.43 µM | 1.91 µM | – | 0.93 µM | 1.3 µM | > 10 µM | 1.14 µM | 1.8 µM
14 | COCC1N=C(c2ccc(OC)c(OCc3ccccc3)c2OC)O[C@H]1c1ccccc1 (stereo partly drawn) | – | 29.6 µM | > 100 µM | 69.3 µM | – | 36.9 µM | 71.2 µM | 66.4 µM | > 100 µM | – | – | – | – | – | – | – | – | – | – | –
15 | O=C(c1ccccc1)c1ccc2cccc(O)c2n1 | > 100 µM | 28 µM | > 100 µM | 39.8 µM | – | > 100 µM | > 100 µM | > 100 µM | > 100 µM | – | – | – | – | – | – | – | – | – | – | –
16 | O=[N+]([O-])c1ccc2c(c1)OCCOCCOc1ccc([N+](=O)[O-])cc1OCCOCCO2 | > 100 µM | > 100 µM | > 100 µM | > 100 µM | – | > 100 µM | > 100 µM | > 100 µM | > 100 µM | – | – | – | – | – | – | – | – | – | – | –
17 | CC(C)(C)C(=O)Nc1ccccc1Br | > 100 µM | > 100 µM | – | – | – | > 100 µM | > 100 µM | > 100 µM | > 100 µM | – | – | – | – | – | – | – | – | – | – | –
18 | COc1ccc(-c2nc3sccn3c2/C=C/C(=O)c2cc(OC)c(OC)c(OC)c2)cc1OC | > 100 µM | 10 µM | 5.89 µM | 3.77 µM | 2.27 µM | 4.95 µM | 7.02 µM | 42.8 µM | 5.43 µM | 3.01 µM | 2.6 µM | – | – | 1.19 µM | 1.99 µM | 2.16 µM | 1.3 µM | 5.98 µM | 2.45 µM | 3.06 µM
19 | O=NN(CCCl)C(=O)NCc1ccc[n+]([O-])c1 | > 100 µM | > 100 µM | > 100 µM | – | – | > 100 µM | > 100 µM | > 100 µM | – | – | – | – | – | – | – | – | – | – | – | –
20 | O=[N+]([O-])c1ccc(OCCNc2cccc3ccccc23)cc1 | > 100 µM | – | > 100 µM | > 100 µM | – | > 100 µM | > 100 µM | > 100 µM | > 100 µM | – | – | – | – | – | – | – | – | – | – | –
